Results as given in US12044651B2, “Sensor device and methods” (SCENTIAN BIO LIMITED, priority 2016, dated 2024).

Experiments:
[1] = CNT-FET control, pristine CNT FET and empty nanodisc functionalized CNT FET (Example 2)
Protocol: In order to carry out the electrical measurements the devices were set up with the PDMS well and source, drain and gate electrodes, via micromanipulators and a Rucker and Kolls probe station, as shown in FIG. 9. Before starting the electrical measurements, 100 μl of PBS buffer (containing 1% DMSO) was added into the testing well. The gate electrode is an Ag/AgCl wire (In Vivo Metric) sheathed in plastic where the exposed area at the end of Ag/AgCl was completely inserted into the PBS buffer to avoid any electrical artefacts that are known to occur when changing the active area of the gate electrode. An Agilent 4156C parameter analyser is used for all electrical measurements^20. The parameter analyser has excellent sensitivity and can accurately measure currents on the femto-amp scale.
During transfer (Vlg−Ids) measurements the gate voltage (Vlg) is swept between −500 mV to +1 V and the source drain voltage (Vds) is set as fixed values (50 mV, 100 mV or 200 mV). For our real time sensing measurement the Vlg is set to 0 and Vds is set as fixed values (50 mV, 100 mV or 200 mV, with a time step of 1 s.
The E-2-hexenal ligand solution is diluted from our 100 mM stock solution, to the concentration ranges required for the sensing experiments. […]

[2] = QCM-D control with empty liposomes (Example 6); settings: empty liposomes immobilised on the QCM
Protocol: Gold (100 nm) sensor crystals were sonicated in ethanol and milli-Q water for 15 minutes each respectively. A 5:1:1 volume ratio of milli-Q water, ammonia (25%), and hydrogen peroxide (30%) was heated to 75° C. for 5 minutes and the sonicated crystals were placed in the heated solution for 5 minutes. Then the crystals were removed from the solution and rinsed with milli-Q water before drying with nitrogen gas. The clean gold crystals were thiol-functionalized by exposing them to 2 mM ethanolic solution of MHA overnight followed by washing with ethanol solution in order to remove excess or loosely bound molecules. The SAM functionalized crystals were then placed into the Q-sense analyser instrument (Biolin Scientific) chamber and flowed with the NHS/EDC, OR22a/liposomes and various concentrations of methyl hexanoate (1.6 μM, 8 μM, 40 μM, 200 μM and 1 mM) in PBS buffer solution to measure the changes in frequency (Δf) and dissipation (ΔD) values.

[3] = CNT-FET control covalently functionalized with empty nanodiscs (Example 3); settings: empty nanodiscs 1:100 dilution; increasing amounts of ligand
Protocol: The dispersion was sonicated until a clear solution was obtained. The temperature was kept at 25° C. throughout the sonication process. The thiolpyridine solution was prepared by dissolving 10 mg of 2-Mercaptopyridine (99%, Sigma Aldrich) in 1 ml of methanol. The solution was spun coated on a polydimethylsiloxane (PDMS) surface at 2000 rpm for one minute. Before the spin coating process, the PDMS surface was cleaned by a 50 W Oxygen plasma for 1 minute to improve the wettability. The cleaned substrates were placed upside down on the PDMS surface for three minutes and washed in ethanol to remove the excess thiolpyridine molecules. Then the substrates were transferred into the CNT suspension and immersed into the suspension for 10 minutes. The samples were removed from the suspension and dipped into Ethanol for another 10 minutes to remove the thiolpyridine molecules in the SWNT network. The alignment markers were deposited by defining the markers by photolithography and thermal evaporation of 5 nm Chromium and 50 nm of Gold. The metal Lift off was done by acetone immersion for 15 minutes followed by an Isopropyl alcohol (IPA) wash and N2 blow dry. The result is a uniform thin film CNT network covering the entire substrate surface. Nanodiscs were prepared using a protocol modified from Bayburt et al. 2010 and 2003^55, 56. Nanodiscs were formed at an MSP:protein:lipid ratio of 1:0.2:150. […]

CCC/C=C/C=O [E2-hexenal]
real time current response [1]: no clear current response

CCCCCC(=O)OC [methyl hexanoate]
increase in oscillation frequency [2]: not observed

COC(=O)c1ccccc1O [methyl salicylate]
current response [3]: no increase in current
